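Step 1: Grow cells in 96-well plates. Step 2: Expose to compound for 48 hours at 5 concentrations. Step 3: Interpolate endpoints linearly; if unreached, use highest concentration. The concentration for full growth arrest is given as TGI.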
Columns and labels:
Experiment in all cases: growth of human tumour cells (NCI), 48 h
786-0 renal = tested on: 786-0 renal
DU-145 prostate = tested on: DU-145 prostate
EKVX NSCLC = tested on: EKVX NSCLC
HL-60(TB) leukemia = tested on: HL-60(TB) leukemia
HOP-92 NSCLC = tested on: HOP-92 NSCLC
KM12 colon = tested on: KM12 colon
MOLT-4 leukemia = tested on: MOLT-4 leukemia
NCI-H23 lung = tested on: NCI-H23 lung
NCI-H522 lung = tested on: NCI-H522 lung
NCI/ADR-RES ovarian = tested on: NCI/ADR-RES ovarian
OVCAR-5 ovarian = tested on: OVCAR-5 ovarian
PC-3 prostate = tested on: PC-3 prostate
SF-295 CNS = tested on: SF-295 CNS
SK-MEL-5 melanoma = tested on: SK-MEL-5 melanoma
SN12C renal = tested on: SN12C renal
SNB-75 CNS = tested on: SNB-75 CNS
UACC-62 melanoma = tested on: UACC-62 melanoma
T-47D breast = tested on: T-47D breast

Compound | TGI (786-0 renal) [µM] | TGI (DU-145 prostate) [µM] | TGI (EKVX NSCLC) [µM] | TGI (HL-60(TB) leukemia) [µM] | TGI (HOP-92 NSCLC) [µM] | TGI (KM12 colon) [µM] | TGI (MOLT-4 leukemia) [µM] | TGI (NCI-H23 lung) [µM] | TGI (NCI-H522 lung) [µM] | TGI (NCI/ADR-RES ovarian) [µM] | TGI (OVCAR-5 ovarian) [µM] | TGI (PC-3 prostate) [µM] | TGI (SF-295 CNS) [µM] | TGI (SK-MEL-5 melanoma) [µM] | TGI (SN12C renal) [µM] | TGI (SNB-75 CNS) [µM] | TGI (UACC-62 melanoma) [µM] | TGI (T-47D breast) [µM]
O=C(NC(CS)C(=O)O)c1c2ccccc2nc2ccccc12 (stereo unspecified) | > 100 | > 100 | > 100 | > 100 | > 100 | > 100 | > 100 | 68.6 | > 100 | > 100 | > 100 | > 100 | > 100 | 12.8 | > 100 | > 100 | > 100 | 
N#C/C(c1nc2ccccc2[nH]1)=c1\s/c(=C/c2ccccc2)c(=O)n1-c1ccccc1 | > 100 |  | > 100 | > 100 | > 100 | > 100 | > 100 | > 100 | > 100 |  | > 100 |  |  | > 100 | > 100 | > 100 | > 100 | 
COc1cc(/C=C2\CCC(C)C3=C2N=c2s/c(=C/c4ccc(Cl)cc4)c(=O)n2C3c2cc(OC)c(OC)c(OC)c2)cc(OC)c1OC (stereo unspecified) | > 100 | > 100 | > 100 | > 100 | > 100 | > 100 | > 100 |  |  |  | > 100 | > 100 |  | > 100 | > 100 | > 100 | > 100 | 
Cc1cc(Cl)ccc1NC(=O)/C(=N\NC(C)(C)C)C(C#N)c1nc(-c2ccc([N+](=O)[O-])cc2)cs1 (stereo unspecified) | > 100 |  | > 100 | > 100 | > 100 | > 100 | > 100 | > 100 | > 100 |  | > 100 |  | > 100 | > 100 | > 100 | > 100 | > 100 | 
O=C1NC(=O)C(CCC(=O)c2cccc3ccccc23)C(=O)N1 | > 100 | > 100 |  | > 100 | > 100 | > 100 | > 100 | > 100 |  | > 100 | > 100 | > 100 | > 100 | > 100 | > 100 | > 100 | > 100 | > 100
O=S(Cc1ccccc1)c1ccccc1Cn1cccc1 (stereo unspecified) | > 100 | > 100 | > 100 | > 100 | > 100 | > 100 |  | > 100 |  | > 100 | > 100 | > 100 | > 100 | > 100 | > 100 | > 100 | > 100 | > 100
Cn1c(-c2ccccc2)cc(-c2ccc3c(c2)OCO3)c1-c1ccsc1 | > 100 | > 100 | > 100 | > 100 | > 100 | > 100 | > 100 | > 100 |  | > 100 | > 100 | > 100 | > 100 | > 100 | > 100 | > 100 | > 100 | > 100

— PubChem BioAssay (NCI)
